In patent EP0110955B1, “BRAIN-SPECIFIC DRUG DELIVERY” (UNIVERSITY OF FLORIDA, priority 1982, dated 1983):
Values belong to the compound of their own block, whether it stands above or below them.

Columns and labels:
[1] = Kinetics of oxidation of the dihydro derivatives in whole blood; type: in vitro ADME, human; details: 37°C; for half-life: human
Procedure: In Whole Blood: In each of 5 tubes, 0.1 ml of 10 x 10-^4 M methanolic solution of the freshly prepared dihydro derivative, was added 2 ml of fresh heparinized whole human blood and the tubes were kept at 37°C in a water bath. At the end of the time period to be investigated, 8 ml of acetonitrile was added, shaken vigorously and centrifuged. The extension of the supernatant solution at 350 nm was measured. A reference sample was made by addition of 0.1 ml of methyl alcohol instead of the sample solution following the same procedure.

[2] = Chemical oxidation by hydrogen peroxide and silver nitrate; type: physicochemical; details: 30% H2O2, UV spectrum
Procedure: The stability of the 1,4-dihydropyridine derivatives (5) was determined in the presence of the oxidizing agents, alcoholic AgN03 and hydrogen peroxide. The in vitro rates of oxidation of the 1,4-dihydropyridine derivative (5c) in 80% plasma, 20% brain homogenate, 20% liver homogenate and in whole blood were determined.
To 10 ml of 30% H202 was added 0.2 g of the dihydropyridine derivative (products of Examples 5 or 8). The mixture was stirred and samples were taken to check the UV spectrum.
To 5 ml of saturated methanolic AgN03 solution was added 1 ml of 5% methanolic solution of the dihydropyridine derivative. The mixture was shaken and left for 5 min for complete precipitation of silver, centrifuged and an aliquot was taken to check the UV spectrum. Complete oxidation to the quaternary salts was observed.

[3] = Kinetics of oxidation of the dihydro derivatives in brain homogenate; type: in vitro ADME, rat; details: pH 7.4, 37°C; for half-life: rat
Procedure: In Brain Homogenate: 2.0 g of rat brain tissue were homogenized in 10 ml of phosphate buffer, pH 7.4. The homogenate was centrifuged for 15 min at 3000 rpm, decanted, heated in a water bath at 50°C for 5 min and then centrifuged again. The supernatant solution was diluted to 100 ml with phosphate buffer, pH 7.4.
Reference Sample: 0.2 ml of methyl alcohol was diluted to 10 ml with the brain homogenate solution, and the solution was used to record the base line on Cary 219 spectrophotometer and as a reference for the dihydro derivative sample solution.
Dihydro Derivative Sample Solutions: 0.2 ml of 6.25 x 10-^4 M methanolic solution of the freshly prepared dihydro derivative was diluted to 10 ml with the brain homogenate solution. The mixture was scanned at 37 ° C from 400 nm to 300 nm every 10 min for 2 hrs on […] spectrophotometer.

[4] = target: T1, COMT (catechol-O-methyltransferase) (Rattus norvegicus, UniProt P22734); test: O-methyl metabolite formation by COMT in biological fluids; type: in vitro ADME; details: no methoxy derivatives detected in any of the biological fluids studied
T1 construct: from tissue; host or cells: rat brain homogenate (20%), rat liver homogenate (20%); also 80% plasma and whole citrated blood
T1 sequence (P22734 1-264): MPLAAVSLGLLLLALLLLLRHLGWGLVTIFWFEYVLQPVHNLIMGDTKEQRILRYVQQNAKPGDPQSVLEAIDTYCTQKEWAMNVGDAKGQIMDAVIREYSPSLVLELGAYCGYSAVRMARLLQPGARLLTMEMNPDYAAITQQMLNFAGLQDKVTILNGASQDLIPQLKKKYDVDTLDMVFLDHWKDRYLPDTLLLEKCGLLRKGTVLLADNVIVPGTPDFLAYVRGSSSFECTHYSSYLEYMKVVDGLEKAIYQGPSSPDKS
Procedure: In an attempt to ascertain whether any biotransformation of the free catechol is taking place by COMT (catechol-O-methyltransferase) either before or after oxidation, the possible O-methyl metabolites (9 and 10) were synthesized separately following Scheme 4 with 3-methoxytyramine hydrochloride as the starting material. [drawing 52] [drawing 53]
Figures 1-4 illustrate the results of such an investigation. The apparent half-lives for the disappearance of 5c in biological fluids at 37°C were calculated. […] The obtained values, 51 min (80% plasma), 17 min (20% brain homogenate), 18 min (whole citrated blood) and 6 min (20% liver homogenate), reflect an acceptable stability of the dihydro derivative 5c. The disappearance of 5c is accompanied by formation of some monoester (11) and dihydroxy dihydro form (5a) in all the media except the liver homogenate. The rate of hydrolysis of the first ester moiety is faster than the second and a reasonable amount of monoester 11 builds up with time. […] Thus, it is established that this derivative, 6a, is forming as the main product of the various interconversion routes and it is the direct precursor thus concluded to be locked in the brain in the in vivo experiment.

[5] = Lability of the catechol esters to hydrolysis; type: physicochemical; details: diacetyl derivatives
From the text: Attempts to prepare 7 by using dopamine free base were largely unsuccessful. As for the catechol protecting groups, the acetyl and pivalyl moieties were selected due to their rather different steric and partitioning parameters. Acylation could be accomplished with the acyl chlorides by using conventional methods. Reduction of the quaternaries (6a-c and 9) was accomplished by using sodium dithionite in mildly basic aqueous solution, (NaHC03). It was observed that the dihydro compound obtained in the case of the quaternary 6b gave a faint green color with ferric ions, indicating partial hydrolysis of at least one of the acetyl moieties during reduction, even in the cold, weakly basic solution used as a medium. The dihydropyridine derivatives isolated (5a-c and 10) were determined to have the expected 1,4-dihydropyridine structure, based on their NMR and UV spectra.
The dipivalyldihydro derivative (5c) was thoroughly investigated for its in vitro rates of disappearance and metabolic degradation in various biological fluids. It is evident that 5c represents a rather complex case, as besides oxidation, a two-step hydrolysis will also take place. Scheme 5 illustrates the interconversion of the possible components. [drawing 54]

[6] = tested on: anterior pituitary (AP); test: In vitro evaluation of the prolactin inhibitory effect on incubated anterior pituitaries; type: cell-based, rats; details: for Prolactin release rate of the incubated AP-S: 37°C, average of 9 separate AP-S
Procedure: Adult female rats (Charles Rivers Lab.) weighing 225-250 g were maintained on food and water ad libitum. Animals were sacrificed by decapitation; their pituitary glands were quickly removed from the cranium. The anterior pituitary (AP) of each animal was dissected into two equal halves and placed into incubation media. (Gibco's Minimal Essential Media supplied by Grand Island Biological Co. was used.) The incubation was conducted at 37 °C, under continuous aeration (95% 02, 5% C02); the pH was 7.2. After one hour of preincubation, the media were discarded and replaced with fresh ones containing either DA ( 2 x 10-^8 M), 6a ( 2 x 10-^8) or ascorbic acid (10-^4 M). In all cases, one-half of AP received the test drug; the other, the ascorbate control. After one hour, samples were taken from the media and the remaining media were discarded. […] One hour later, the second samples were taken After the 3 h incubation period, each half AP's were weighed. The samples were diluted 1:50 with phosphate buffered saline and then assayed in triplicate by the radioimmunoassay method described. The data are given as ng prolactin released/mg wet weight/h. Paired Student's T-test was used to evaluate the significance of the inhibitory effects of the test drugs on prolactin secretion The control AP half and the drug treated half were employed in each paired comparison. See TABLE I and the discussion thereof hereinabove.

[7] = tested on: serum prolactin; test: In vivo effect on pituitary prolactin secretion (17-β-estradiol primed male rats); details: I.V. 1 mg/kg
From the text: Adult male rats (Charles Rivers, CD-1) weighing 200 to 225 g were provided food and water ad libitum for at least one week period to experimentation. To elevate serum prolactin levels, each rat received a single s.c. implant of a Silastic tube (1.57 mm interior diameter, 5 mm x 3.15 mm overall size) packed with crystalline 17-,8-estradiol. Two days later the rats were lightly anesthetized with ether and a small incision was made over the right jugular vein for intravenous (LV.) administration of the test drugs. Compound 6a was injected at a dose of 1 mg/kg body weight/ml saline and groups of six rats were decapitated at 15, 30, 60 and 120 min later to collect blood samples. Control rats (time 0) received an I.V. injection of the saline vehicle and were decapitated 30 min later. Compound 5c was dissolved in 10% ethanol in saline and was injected IV. Rats were decapitated at 15, 30 and 120 min later. Control (time 0) animals received the 10% ethanol vehicle and were sampled 30 min later.
Trunk blood was collected, allowed to clot for 2h and the serum was separated and stored at -20 ° C for subsequent assay for prolactin concentrations. Each serum sample was assayed in duplicate by the doubleantibody radioimmunoassay procedure described by the National Pituitary Agency Hormone Distribution Program. Serum prolactin concentrations are expressed in terms of the PRL-RP-2 reference preparation provided. The intraassay coefficient of variation for 10 replicate samples of pooled serum obtained from male rats was 13.8%.
The effects of compounds 5c and 6a on serum prolactin concentrations were evaluated by one-way analysis of variance and Student-Newman Keuls tests. A probability level of less than 0.05 was selected for significance. See FIGURE 7 and the discussion thereof hereinabove.

[8] = cited from earlier work

half-life ([1]; unit inferred): 3.9 h
half-life ([3]; unit inferred): 22.9 h
SMILES: CN1C=C(C(=O)NCCc2ccccc2)CC(C(=O)NCCc2ccccc2)=C1 [1-Methyl-3,5-di(N-β-phenethyl)carbamoyl-1,4-dihydropyridine]
Kinetics of Oxidation (rate constant) [1]: 4.9 x 10^-5 n=5 r=.949
Oxidation by Hydrogen Peroxide [2]: Complete oxidation to the corresponding quaternary salts
Kinetics of Oxidation (rate constant) [3]: 8.4 x 10^-6 n=6 r=.997

half-life [1]: 1.7 h
half-life [3]: 11.1 h
SMILES: CCOC(=O)C1=CN(C)C=C(C(=O)NCCc2ccccc2)C1 [5-Carboethoxy-1-methyl-3-(N-β-phenethyl)carbamoyl-1,4-dihydropyridine]
Kinetics of Oxidation (rate constant) [1]: 1.13 x 10^-4 n=5 r=.972
Oxidation by Hydrogen Peroxide [2]: Complete oxidation to the corresponding quaternary salts
Kinetics of Oxidation (rate constant) [3]: 1.74 x 10^-5 n=6 r=.993

SMILES: CN1C=CCC(C(=O)NCCc2ccc(O)c(O)c2)=C1 [5a, 1-Methyl-3-{N-[β-(3,4-dihydroxyphenyl)-ethyl]}carbamoyl-1,4-dihydropyridine]
substrate for COMT [4]: do not appear to be good substrates for COMT

SMILES: CC(=O)Oc1ccc(CCNC(=O)C2=CN(C)C=CC2)cc1OC(C)=O [5b, 1-Methyl-3-(N-[6-(3,4-diacetoxyphenyl)-ethyl]}carbamoyl-1,4-dihydropyridine]
lability to hydrolysis [5]: labile to hydrolysis

SMILES: C[n+]1cccc(C(=O)NCCc2ccc(O)c(O)c2)c1 [6a]
substrate for COMT [4]: do not appear to be good substrates for COMT
reduction of the prolactin rate secretion ([6]; 2x10-^7 M): no effect
Prolactin release rate of the incubated AP-S ([6]; 2x10^-7M): 277±32 ng/mg. h
effect on the rate of release of prolactin ([6]; 2x10^-8M): neither DA nor 6a had any effect
Prolactin release rate of the incubated AP-S ([6]; 2x10^-8M): 386±29 ng/mg. h
serum prolactin levels versus vehicle injected controls ([7]; by 60 and 120 min): not significantly different from vehicle injected controls
effect on the serum prolactin concentrations ([7]; by 15 min): no significant effect
reduction of serum prolactin concentrations ([7]; by 30 min): 67%

SMILES: CC(=O)Oc1ccc(CCNC(=O)c2ccc[n+](C)c2)cc1OC(C)=O [6b, 1-Methyl-3-{N-[β-(3,4-diacetoxy-phenyl)ethyl]} carbamoyl-pyridinium iodide]
lability to hydrolysis [5]: labile to hydrolysis

SMILES: NCCc1ccc(O)c(O)c1 [DA, dopamine, reference compound]
Prolactin release rate of the incubated AP-S ([6]; 2x10^-7M): 121±38 ng/mg. h
effect on the rate of release of prolactin ([6]; 2x10^-8M): neither DA nor 6a had any effect
Prolactin release rate of the incubated AP-S ([6]; 2x10^-8M): 355±67 ng/mg. h
inhibition at 0.2 µM ([6]; Rattus norvegicus, 1 h, 2x10-^7 M, read-out: reduction of the prolactin rate secretion): 57%

SMILES: CCCC(CCC)C(=O)[O-].[Na+] [sodium valproate]
level in the blood needed to achieve the required activity [8]: 50 to 100 µg/mL
